Measured values as given in patent publication US20230085945A1, “ORTHOGONAL SAFETY SWITCHES TO ELIMINATE GENETICALLY ENGINEERED CELLS” (The Board of Trustees of the Leland Stanford Junior …, priority 2020, published 2023).

Experiments:
[1] = system: ACTB^OiCasp9-mPlum;NANOG^iCasp9-YFP hPSCs and differentiated liver, bone and neural progenitors; assay: Killing of ACTB^OiCasp9-mPlum;NANOG^iCasp9-YFP hPSCs and differentiated derivatives by AP21 or AP20 (alamar blue); assay type: cell-based, human; conditions: dual-transgenic line; 1 nM, 24 hours
Experimental: FIG. 6: Rationale, design and implementation of the ACTB^OiCasP9-mPlum safety switch. A) Intended application of the dual ACTB^OiCasp9-mPlum;NANOG^iCasp9-YFP safeguard. B) Cas9 RNP/AAV6-based knock-in strategy for ACTB^iCasp9-mPlum targeting, which was performed in the NANOG^iCasp9-YFP hESC line. C) 5×10^5 ACTB^OiCasp9-mPlum; NANOG^iCasp9-YFP hESCs were treated with control media or 1-1000 nM AP21967 for 24 hours. Cell viability was analyzed using alamar blue. D) ACTB^OiCasp9-mPlum;NANOG^iCasp9-YFP and ACTB^TK-mPlum; NANOG^iCasp9-YFP hESCs (negative control), in addition to their respective differentiated derivatives, were treated for 24 hours with 1 nM of AP21967. E) 5×10^5 ACTB^OiCasp9-mPlum; NANOG^iCasp9-YFP hESCs, and their respective differentiated derivatives, were treated with control media, 1 nM of AP21967 or and 1 nM of AP20187 for 24 hours. Surviving cells were analyzed by alamar blue. F) 10^6 ACTB^OiCasp9-mPlum;NANOG^iCasp9-YFP hESCs engineered to express CAG-AkaLuciferase were treated with control media or 1 nM AP20187 for 24 hours, and then subcutaneously transplanted into the right and left dorsal flanks of NOD-SCID Il2rg^−/− mice (10^6 cells per flank). 4 weeks post-transplant, teratomas formed and AP21967 was intraperitoneally administered once at 10 mg/kg. […] Total flux (photons/sec) was measured for each animal and was averaged.

[2] = system: NANOG^iCasp9-YFP hPSCs transplanted subcutaneously (teratomas); assay: In vivo teratoma formation after AP20 pre-treatment of hPSCs (bioluminescent imaging); design: species or system NOD-SCID Il2rg^−/− mice; conditions: 5×10^5 hPSCs pre-treated with 1 nM AP20 for 24 hours, subcutaneous transplantation
Experimental: (§1) FIG. 3: Implementation of the NANOG^iCasp9-YFP safety switch. A) Schema depicting how drug AP20187 induces dimerization of Caspase9 in undifferentiated NANOG^iCasp9-YFP hESCs, subsequently triggering cell death (top left). NANOG^iCasp9-YFP hESCs were treated for 24 hours with increasing concentrations of AP20187. AP20187 was withdrawn, and cultures were further grown in mTeSR1 to allow any surviving hESCs to grow; any surviving colonies were counted 1 week later (top right). Alkaline phosphatase staining of whole wells of a 12-well plate after 24-hour treatment with AP20187 (bottom). […] Bioluminescent imaging of mice occurred weekly for 5 weeks with no transplant control (NTC) animals included for relative luminescence normalization. Total flux (photons/sec) was measured for each animal and averaged. […] The percentage of surviving cells was calculated relative to untreated controls. […]
Given that very small numbers of hPSCs (10,000) are sufficient to form teratomas in vivo, we tested the lower bounds of this system to test whether any rare hPSCs survived drug treatment and whether they could form teratomas. […] We used bioluminescent imaging (using the AkaLuciferase system) to determine if micro-teratomas might form, rather than visual inspection of subcutaneous nodules, because bioluminescent imaging is more sensitive and quantitative. […]

[3] = system: NANOG^iCasp9-YFP hPSC-derived day-6 liver progenitors, bone progenitors and forebrain progenitors; assay: Survival of differentiated hPSC-derived tissue progenitors after AP20; assay type: cell-based, human; conditions: 24-hour AP20 treatment
Experimental: as §1
Cell count assay—hESCs were dissociated with EDTA and 5×10^5 cells were plated per well of a 6-well plate that was pre-coated with Matrigel. […] Subsequently, cells were dissociated and the number of viable cells were counted using the Bio-Rad TC20™ Automated Cell Counter (trypan blue exclusion). […]

## CC[C@H](C(=O)N1CCCC[C@H]1C(=O)O[C@H](CCc1ccc(OC)c(OC)c1)c1cccc(OCC(=O)NCC(CNC(=O)COc2cccc([C@@H](CCc3ccc(OC)c(OC)c3)OC(=O)[C@@H]3CCCCN3C(=O)[C@@H](CC)c3cc(OC)c(OC)c(OC)c3)c2)CN(C)C)c1)c1cc(OC)c(OC)c(OC)c1 [AP20]
[1]
  killing of undifferentiated and differentiated cells: selectively kill undifferentiated hPSCs
[2]
  mice that formed teratomas: 0/14
[3]
  differentiated progenitors spared / remaining viable: > 95%
